Measured values published in patent US5110904A (Abbott Laboratories, priority 1990, dated 1992).
Non-standard residues stand in square brackets, D forms with d. Residues, ends and D or L forms follow the SMILES beside them. *: point of attachment. dPhe(4-Cl) = N[C@H](Cc1ccc(Cl)cc1)C(=O)O; 1Nal = N[C@@H](Cc1cccc2ccccc12)C(=O)O; d1Nal = N[C@H](Cc1cccc2ccccc12)C(=O)O; Lys(iPr) = CC(C)NCCCC[C@H](N)C(=O)O; NMeY = CN[C@@H](Cc1ccc(O)cc1)C(=O)O; NMeF = CN[C@@H](Cc1ccccc1)C(=O)O; d3Pal = N[C@H](Cc1cccnc1)C(=O)O; Cha = N[C@@H](CC1CCCCC1)C(=O)O; d2Thi = N[C@H](Cc1cccs1)C(=O)O; NMeL = CN[C@@H](CC(C)C)C(=O)O; pGlu = O=C1CC[C@@H](C(=O)O)N1; Nicotinoyl = O=C(c1cccnc1)*; NMeS = CN[C@@H](CO)C(=O)O; Sar = CNCC(=O)O

molecular target: T1, LHRH receptors (Rattus norvegicus, UniProt P30969); assay: Radioligand receptor binding assay, rat pituitary membranes; conditions: radioiodinated [D-Leu6-des Gly10]-LHRH ethyl amide 50 pM, 2 hours at 4° C., read-out: Receptor Binding pkI (converted)
T1 sequence (P30969 1-327): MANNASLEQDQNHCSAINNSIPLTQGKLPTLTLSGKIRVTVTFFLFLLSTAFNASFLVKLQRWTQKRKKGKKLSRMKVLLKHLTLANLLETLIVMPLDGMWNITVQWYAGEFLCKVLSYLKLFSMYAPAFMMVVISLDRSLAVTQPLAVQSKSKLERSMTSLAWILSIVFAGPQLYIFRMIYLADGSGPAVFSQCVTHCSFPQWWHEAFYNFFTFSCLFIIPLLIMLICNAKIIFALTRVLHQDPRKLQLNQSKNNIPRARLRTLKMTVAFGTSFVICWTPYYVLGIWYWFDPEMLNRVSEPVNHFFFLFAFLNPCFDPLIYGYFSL
Procedure: The radioligand (50 pM), receptors, and compounds to be tested are coincubated for 2 hours at 4° C. Bound ligand is separated from free ligand via centrifugation and aspiration.

Row | SMILES | Ki
1 | CCNC(=O)[C@@H]1CCCN1C(=O)[C@H](CCCN=C(N)N)NC(=O)[C@H](CC(C)C)NC(=O)[C@@H](CC(C)C)NC(=O)[C@H](Cc1ccc(O)cc1)NC(=O)[C@H](CO)N(C)C(=O)[C@H](Cc1c[nH]c2ccccc12)NC(=O)[C@H](Cc1c[nH]cn1)NC(=O)[C@@H]1CCC(=O)N1 [Ex. 1, (pyro)Glu-His-Trp-N-Me-Ser-Tyr-D-Leu-Leu-Arg-Pro-NHEt] ([pGlu]HW[NMeS]Y[dL]LRP-NHEt) | 1.17 nM
2 | CCNC(=O)[C@@H]1CCCN1C(=O)[C@H](CCCN=C(N)N)NC(=O)[C@H](CC(C)C)NC(=O)[C@@H](Cc1c[nH]c2ccccc12)NC(=O)[C@H](Cc1ccc(O)cc1)NC(=O)[C@H](CO)NC(=O)[C@H](Cc1c[nH]c2ccccc12)NC(=O)[C@H](Cc1ccccc1)N(C)C(=O)[C@@H]1CCC(=O)N1 [Ex. 19, (pyro)Glu-N-Me-Phe-Trp-Ser-Tyr-D-Trp-Leu-Arg-ProNHEt] ([pGlu][NMeF]WSY[dW]LRP-NHEt) | 0.038 nM
3 | CCNC(=O)[C@@H]1CCCN1C(=O)[C@H](CCCN=C(N)N)N(C)C(=O)[C@H](CC(C)C)NC(=O)[C@@H](Cc1c[nH]c2ccccc12)NC(=O)[C@H](Cc1ccc(O)cc1)NC(=O)[C@H](CO)NC(=O)[C@H](Cc1c[nH]c2ccccc12)NC(=O)[C@H](Cc1cnc[nH]1)NC(=O)[C@@H]1CCC(=O)N1 [Ex. 23, (pyro)Glu-His-Trp-Ser-Tyr-D-Trp-Leu-N-Me-Arg-ProNHEt] | 0.0562 nM
4 | CC(=O)N[C@H](Cc1ccc(Cl)cc1)C(=O)N[C@H](Cc1ccc(Cl)cc1)C(=O)N[C@H](Cc1cccs1)C(=O)N[C@@H](CO)C(=O)N(C)[C@@H](Cc1ccc(O)cc1)C(=O)N[C@H](CCCCN)C(=O)N[C@@H](CC(C)C)C(=O)N[C@@H](CCCNC(=N)N)C(=O)N1CCC[C@H]1C(=O)N[C@H](C)C(N)=O [Ex. 39, N-Ac-D-4-Cl-Phe-D-4-Cl-Phe-D-2-Thia-Ser-N-Me-Tyr-D-Lys-Leu-Arg-Pro-D-AlaNH2] (Ac-[dPhe(4-Cl)][dPhe(4-Cl)][d2Thi]S[NMeY][dK]LRP[dA]-NH2) | 0.0355 nM
5 | CC(=O)NCC(=O)N[C@H](Cc1ccc(Cl)cc1)C(=O)N[C@H](Cc1cccnc1)C(=O)N[C@@H](CO)C(=O)N(C)[C@@H](Cc1ccc(O)cc1)C(=O)N[C@H](CCCCNC(=O)c1cccnc1)C(=O)N[C@@H](CC(C)C)C(=O)N[C@@H](CCCCNC(C)C)C(=O)N1CCC[C@H]1C(=O)N[C@H](C)C(N)=O [Ex. 42, N-Ac-Gly-D-4-Cl-Phe-D-3-Pal-Ser-N-Me-Tyr-D-Lys-(N-epsilon-nicotinyl)-Leu-Lys(N-epsilon-isopropyl)-Pro-D-AlaNH2] (Ac-G[dPhe(4-Cl)][d3Pal]S[NMeY][dK](Nicotinoyl)L[Lys(iPr)]P[dA]-NH2) | 0.603 nM
6 | CC(=O)N[C@H](Cc1ccc(Cl)cc1)C(=O)N[C@H](Cc1ccc(Cl)cc1)C(=O)N[C@H](Cc1cccs1)C(=O)N[C@@H](CO)C(=O)N(C)[C@@H](Cc1ccc(O)cc1)C(=O)N[C@H](CCCCN)C(=O)N(C)[C@@H](CC(C)C)C(=O)N[C@@H](CCCNC(=N)N)C(=O)N1CCC[C@H]1C(=O)N[C@H](C)C(N)=O [Ex. 45, N-Ac-D-4-Cl-Phe-D-4-Cl-Phe-D-2-Thia-Ser-N-Me-Tyr-D-Lys-N-Me-Leu-Arg-Pro-D-AlaNH4] (Ac-[dPhe(4-Cl)][dPhe(4-Cl)][d2Thi]S[NMeY][dK][NMeL]RP[dA]-NH2) | 0.0138 nM

The next lines start with the values.

Row | Ki | SMILES
7 | 0.038 nM | CC(=O)N[C@H](Cc1ccc(Cl)cc1)C(=O)N[C@H](Cc1ccc(Cl)cc1)C(=O)N[C@H](Cc1cccc2ccccc12)C(=O)N[C@@H](CO)C(=O)N(C)[C@@H](Cc1ccc(O)cc1)C(=O)N[C@H](CCCCN)C(=O)N[C@@H](CC1CCCCC1)C(=O)N[C@@H](CCCNC(=N)N)C(=O)N1CCC[C@H]1C(=O)N[C@H](C)C(N)=O [Ex. 47, N-Ac-D-4-Cl-Phe-D-4-Cl-Phe-D-1-Nal-Ser-N-Me-Tyr-D-Lys-Cha-Arg-Pro-D-AlaNH2] (Ac-[dPhe(4-Cl)][dPhe(4-Cl)][d1Nal]S[NMeY][dK][Cha]RP[dA]-NH2)
8 | 0.01 nM | CC(=O)N(C)CC(=O)N[C@H](Cc1ccc(Cl)cc1)C(=O)N[C@H](Cc1cccc2ccccc12)C(=O)N[C@@H](CO)C(=O)N(C)[C@@H](Cc1ccc(O)cc1)C(=O)N[C@H](CCCCN)C(=O)N[C@@H](CC(C)C)C(=O)N[C@@H](CCCNC(=N)N)C(=O)N1CCC[C@H]1C(=O)N[C@H](C)C(N)=O [Ex. 48, N-Ac-Sar-D-4-Cl-Phe-D-1-Nal-Ser-N-Me-Tyr-D-Lys-Leu-Arg-Pro-D-AlaNH2] (Ac-[Sar][dPhe(4-Cl)][d1Nal]S[NMeY][dK]LRP[dA]-NH2)
9 | 0.0316 nM | CC(=O)N(C)CC(=O)N[C@H](Cc1ccc(Cl)cc1)C(=O)N[C@H](Cc1cccs1)C(=O)N[C@@H](CO)C(=O)N(C)[C@@H](Cc1ccc(O)cc1)C(=O)N[C@H](CCCCN)C(=O)N[C@@H](CC(C)C)C(=O)N[C@@H](CCCNC(=N)N)C(=O)N1CCC[C@H]1C(=O)N[C@H](C)C(N)=O [Ex. 49, N-Ac-Sar-D-4-Cl-Phe-D-2-Thia-Ser-N-Me-Tyr-D-Lys-Leu-Arg-Pro-D-AlaNH2] (Ac-[Sar][dPhe(4-Cl)][d2Thi]S[NMeY][dK]LRP[dA]-NH2)
10 | 0.0138 nM | CC(=O)N(C)CC(=O)N[C@H](Cc1ccc(Cl)cc1)C(=O)N[C@H](Cc1cccc2ccccc12)C(=O)N[C@@H](CO)C(=O)N(C)[C@@H](Cc1ccc(O)cc1)C(=O)N[C@H](Cc1cccnc1)C(=O)N[C@@H](CC(C)C)C(=O)N[C@@H](CCCNC(=N)N)C(=O)N1CCC[C@H]1C(=O)N[C@H](C)C(N)=O [Ex. 50, N-Ac-Sar-D-4-Cl-Phe-D-1-Nal-Ser-N-Me-Tyr-D-3-Pal-Leu-Arg-Pro-D-AlaNH4] (Ac-[Sar][dPhe(4-Cl)][d1Nal]S[NMeY][d3Pal]LRP[dA]-NH2)
11 | 0.0269 nM | CC(=O)N(C)CC(=O)N[C@H](Cc1ccc(Cl)cc1)C(=O)N[C@H](Cc1cccc2ccccc12)C(=O)N[C@@H](CO)C(=O)N(C)[C@@H](Cc1ccc(O)cc1)C(=O)N[C@H](CCCCNC(=O)c1cccnc1)C(=O)N[C@@H](CC(C)C)C(=O)N[C@@H](CCCNC(=N)N)C(=O)N1CCC[C@H]1C(=O)N[C@H](C)C(N)=O [Ex. 51, N-Ac-Sar-D-4-Cl-Phe-D-1-Nal-Ser-N-Me-Tyr-D-Tys(N-epsilon-nicotinyl)-Leu-Arg-Pro-D-AlaNH2] (Ac-[Sar][dPhe(4-Cl)][d1Nal]S[NMeY][dK](Nicotinoyl)LRP[dA]-NH2)
12 | 0.017 nM | CC(=O)N(C)CC(=O)N[C@H](Cc1ccc(Cl)cc1)C(=O)N[C@@H](Cc1cccc2ccccc12)C(=O)N[C@@H](CO)C(=O)N(C)[C@@H](Cc1ccc(O)cc1)C(=O)N[C@H](CCCCN)C(=O)N[C@@H](CC(C)C)C(=O)N[C@@H](CCCNC(=N)N)C(=O)N1CCC[C@H]1C(=O)N[C@H](C)C(N)=O [Ex. 52, N-Ac-Sar-D-4-Cl-Phe-1-Nal-Ser-N-Me-Tyr-D-Lys-Leu-Arg-Pro-D-AlaNH4] (Ac-[Sar][dPhe(4-Cl)][1Nal]S[NMeY][dK]LRP[dA]-NH2)
13 | 0.0132 nM | CC(=O)NCC(=O)N[C@H](Cc1ccc(Cl)cc1)C(=O)N[C@H](Cc1cccc2ccccc12)C(=O)N[C@@H](CO)C(=O)N(C)[C@@H](Cc1ccc(O)cc1)C(=O)N[C@H](CCCCN)C(=O)N[C@@H](CC(C)C)C(=O)N[C@@H](CCCNC(=N)N)C(=O)N1CCC[C@H]1C(=O)N[C@H](C)C(N)=O [Ex. 53, N-Ac-Gly-D-4-Cl-Phe-D-1-Nal-Ser-N-Me-Tyr-D-Lys-Leu-Arg-Pro-D-AlaNH2] (Ac-G[dPhe(4-Cl)][d1Nal]S[NMeY][dK]LRP[dA]-NH2)
